Experiments:
[1] = Displacement of [3H]2BFI from Imidazoline receptor 2 in Sprague-Dawley rat brain P2 membrans after […] by liquid scintillation counting
[2] = target: T1, Adrenergic receptor alpha-1 (Rattus norvegicus, UniProt P15823+P23944+P43140); experiment: Displacement of [3H]prazosine from Alpha-1 adrenergic receptor in Sprague-Dawley rat brain P2 membranes after […] by liquid scintillation counting
T1 sequence (P15823 whole entry): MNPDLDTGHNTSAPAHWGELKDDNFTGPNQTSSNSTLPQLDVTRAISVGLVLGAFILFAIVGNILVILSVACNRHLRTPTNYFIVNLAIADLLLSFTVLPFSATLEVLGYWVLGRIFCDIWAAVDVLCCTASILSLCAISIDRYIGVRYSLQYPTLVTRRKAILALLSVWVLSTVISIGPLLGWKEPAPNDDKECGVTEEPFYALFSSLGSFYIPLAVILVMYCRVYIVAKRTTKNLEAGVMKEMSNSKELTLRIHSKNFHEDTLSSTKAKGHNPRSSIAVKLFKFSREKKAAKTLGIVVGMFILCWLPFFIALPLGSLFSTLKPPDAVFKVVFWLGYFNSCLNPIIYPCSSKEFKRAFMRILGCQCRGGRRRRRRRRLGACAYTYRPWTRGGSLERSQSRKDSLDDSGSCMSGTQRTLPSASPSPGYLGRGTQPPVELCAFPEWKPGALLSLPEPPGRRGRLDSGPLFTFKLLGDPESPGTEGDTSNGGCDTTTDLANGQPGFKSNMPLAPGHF
T1 sequence (P23944 whole entry): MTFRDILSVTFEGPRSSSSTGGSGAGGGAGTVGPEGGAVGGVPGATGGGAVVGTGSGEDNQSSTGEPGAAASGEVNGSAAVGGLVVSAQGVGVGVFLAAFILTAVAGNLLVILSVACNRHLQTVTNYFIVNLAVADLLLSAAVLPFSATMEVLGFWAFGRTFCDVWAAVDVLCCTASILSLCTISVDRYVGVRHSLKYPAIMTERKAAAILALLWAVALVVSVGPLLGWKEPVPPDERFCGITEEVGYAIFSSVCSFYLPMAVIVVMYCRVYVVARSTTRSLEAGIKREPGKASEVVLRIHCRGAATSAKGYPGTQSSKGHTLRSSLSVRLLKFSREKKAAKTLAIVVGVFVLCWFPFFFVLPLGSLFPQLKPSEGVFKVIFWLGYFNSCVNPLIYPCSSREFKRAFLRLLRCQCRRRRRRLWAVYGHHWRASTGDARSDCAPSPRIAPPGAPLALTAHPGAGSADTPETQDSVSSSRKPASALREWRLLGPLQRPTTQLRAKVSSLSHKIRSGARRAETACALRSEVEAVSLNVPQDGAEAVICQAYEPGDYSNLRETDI
T1 sequence (P43140 whole entry): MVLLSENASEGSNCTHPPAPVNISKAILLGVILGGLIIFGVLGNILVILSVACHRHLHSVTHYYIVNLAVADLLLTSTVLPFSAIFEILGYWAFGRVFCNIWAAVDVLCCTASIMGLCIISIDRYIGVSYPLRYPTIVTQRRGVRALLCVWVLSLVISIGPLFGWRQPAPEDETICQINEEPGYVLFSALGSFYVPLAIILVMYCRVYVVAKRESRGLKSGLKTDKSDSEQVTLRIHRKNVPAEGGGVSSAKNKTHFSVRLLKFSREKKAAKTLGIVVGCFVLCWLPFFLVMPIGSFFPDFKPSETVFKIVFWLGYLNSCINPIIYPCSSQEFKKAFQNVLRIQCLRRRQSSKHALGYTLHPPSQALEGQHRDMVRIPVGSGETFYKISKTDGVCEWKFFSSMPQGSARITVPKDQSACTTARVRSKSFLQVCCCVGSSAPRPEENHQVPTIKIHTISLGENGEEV

[3] = target: T2, Adrenergic receptor alpha-2 (Rattus norvegicus, UniProt P22086+P19328+P22909); experiment: Displacement of [3H]RX821002 from Alpha-2 adrenergic receptor in Sprague-Dawley rat brain P2 membranes after […] by liquid scintillation counting
T2 sequence (P22086 whole entry): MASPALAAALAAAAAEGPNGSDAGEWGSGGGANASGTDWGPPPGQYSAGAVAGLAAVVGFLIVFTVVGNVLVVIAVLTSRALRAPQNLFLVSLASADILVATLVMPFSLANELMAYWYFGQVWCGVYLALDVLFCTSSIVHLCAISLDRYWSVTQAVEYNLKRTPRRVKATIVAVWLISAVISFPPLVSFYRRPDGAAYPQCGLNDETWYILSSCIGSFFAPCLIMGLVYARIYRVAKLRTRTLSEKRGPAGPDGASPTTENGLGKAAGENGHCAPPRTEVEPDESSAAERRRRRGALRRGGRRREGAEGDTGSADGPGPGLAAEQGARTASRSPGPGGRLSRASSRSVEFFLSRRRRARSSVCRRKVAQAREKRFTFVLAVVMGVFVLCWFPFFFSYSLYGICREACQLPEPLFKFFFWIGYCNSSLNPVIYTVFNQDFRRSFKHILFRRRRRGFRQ
T2 sequence (P19328 whole entry): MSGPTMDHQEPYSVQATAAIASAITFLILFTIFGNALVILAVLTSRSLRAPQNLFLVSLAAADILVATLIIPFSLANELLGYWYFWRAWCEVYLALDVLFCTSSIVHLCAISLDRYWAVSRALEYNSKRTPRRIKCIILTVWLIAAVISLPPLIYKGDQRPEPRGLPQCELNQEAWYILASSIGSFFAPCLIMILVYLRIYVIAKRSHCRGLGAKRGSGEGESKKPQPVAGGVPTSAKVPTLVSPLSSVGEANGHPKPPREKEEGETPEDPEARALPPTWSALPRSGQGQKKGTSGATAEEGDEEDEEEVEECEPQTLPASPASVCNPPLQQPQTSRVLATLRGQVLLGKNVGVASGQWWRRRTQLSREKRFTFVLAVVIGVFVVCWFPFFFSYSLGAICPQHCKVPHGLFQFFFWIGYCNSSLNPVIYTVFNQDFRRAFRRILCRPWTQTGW
T2 sequence (P22909 whole entry): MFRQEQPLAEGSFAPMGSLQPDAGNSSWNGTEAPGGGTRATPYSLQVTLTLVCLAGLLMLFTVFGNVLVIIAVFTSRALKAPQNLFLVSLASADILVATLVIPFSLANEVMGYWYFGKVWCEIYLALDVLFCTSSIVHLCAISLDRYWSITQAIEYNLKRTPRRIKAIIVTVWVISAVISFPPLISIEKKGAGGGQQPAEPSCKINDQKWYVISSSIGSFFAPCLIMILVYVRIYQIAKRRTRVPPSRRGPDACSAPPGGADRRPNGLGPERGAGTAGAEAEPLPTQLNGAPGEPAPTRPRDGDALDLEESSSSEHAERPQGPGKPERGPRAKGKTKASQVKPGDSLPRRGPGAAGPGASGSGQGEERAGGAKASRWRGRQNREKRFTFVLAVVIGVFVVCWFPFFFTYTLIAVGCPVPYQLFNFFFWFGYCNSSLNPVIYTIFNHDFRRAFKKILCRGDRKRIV

Nischarin = Nischarin (Rattus norvegicus, UniProt Q4G017); experiment: Displacement of [3H]clonidine from Imidazoline receptor 1 in Sprague-Dawley rat kidney P2 membranes after […] by liquid scintillation counting
Nischarin, sequence (Q4G017 whole entry): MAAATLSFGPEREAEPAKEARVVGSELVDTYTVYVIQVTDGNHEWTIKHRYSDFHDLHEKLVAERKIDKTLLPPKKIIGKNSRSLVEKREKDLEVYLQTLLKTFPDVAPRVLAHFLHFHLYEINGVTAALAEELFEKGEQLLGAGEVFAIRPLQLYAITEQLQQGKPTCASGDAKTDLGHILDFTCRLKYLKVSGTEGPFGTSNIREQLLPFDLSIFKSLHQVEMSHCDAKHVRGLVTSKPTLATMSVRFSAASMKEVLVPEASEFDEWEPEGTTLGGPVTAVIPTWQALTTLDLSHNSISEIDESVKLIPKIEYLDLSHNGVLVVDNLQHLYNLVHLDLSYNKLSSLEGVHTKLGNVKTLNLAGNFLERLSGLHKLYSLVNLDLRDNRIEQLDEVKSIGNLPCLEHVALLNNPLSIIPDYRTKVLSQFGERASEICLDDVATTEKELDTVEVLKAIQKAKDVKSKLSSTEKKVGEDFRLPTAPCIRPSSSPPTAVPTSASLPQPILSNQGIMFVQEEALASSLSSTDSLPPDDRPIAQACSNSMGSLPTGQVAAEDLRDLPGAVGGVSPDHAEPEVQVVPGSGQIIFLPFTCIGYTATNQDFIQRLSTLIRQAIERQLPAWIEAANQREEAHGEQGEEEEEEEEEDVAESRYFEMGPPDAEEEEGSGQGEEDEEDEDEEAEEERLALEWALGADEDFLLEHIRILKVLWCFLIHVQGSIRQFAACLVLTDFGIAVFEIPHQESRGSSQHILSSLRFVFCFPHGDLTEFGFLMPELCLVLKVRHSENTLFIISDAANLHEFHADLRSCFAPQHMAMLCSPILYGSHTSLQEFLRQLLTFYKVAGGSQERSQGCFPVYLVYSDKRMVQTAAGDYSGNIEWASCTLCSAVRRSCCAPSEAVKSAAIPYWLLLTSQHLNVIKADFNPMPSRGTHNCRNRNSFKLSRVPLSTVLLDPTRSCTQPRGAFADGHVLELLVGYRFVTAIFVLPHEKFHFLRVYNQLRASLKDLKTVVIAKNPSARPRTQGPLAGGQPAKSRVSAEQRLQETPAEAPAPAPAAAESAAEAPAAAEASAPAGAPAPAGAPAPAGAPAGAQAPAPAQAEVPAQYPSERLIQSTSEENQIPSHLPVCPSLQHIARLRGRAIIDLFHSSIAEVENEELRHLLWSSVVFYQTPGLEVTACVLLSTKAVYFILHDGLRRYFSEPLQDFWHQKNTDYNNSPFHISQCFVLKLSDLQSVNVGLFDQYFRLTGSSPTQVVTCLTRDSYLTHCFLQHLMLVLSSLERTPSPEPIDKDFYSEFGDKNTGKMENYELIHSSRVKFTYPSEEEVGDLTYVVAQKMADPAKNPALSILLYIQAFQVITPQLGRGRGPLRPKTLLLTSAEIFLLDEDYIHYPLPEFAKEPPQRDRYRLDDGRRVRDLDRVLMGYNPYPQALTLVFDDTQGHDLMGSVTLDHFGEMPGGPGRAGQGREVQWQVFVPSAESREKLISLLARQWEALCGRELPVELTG

| Compound | Ki [1] | Ki [2] | Ki [3] | Ki (Nischarin) |
| --- | --- | --- | --- | --- |
| Cl.Clc1ccc2ccn(CC3=NCCN3)c2c1 | 48.5 nM | 228.7 nM | 94.5 nM | 5.58 µM |
| Cl.Fc1ccc2ccn(CC3=NCCN3)c2c1 | 240 nM | 87.83 nM | 15.9 nM | 0.789 µM |
| Cl.Fc1cccc2c1ccn2CC1=NCCN1 | 249 nM | 27.56 nM | 46.97 nM | 14.6 µM |
| Br.COc1cccc2ccn(CC3=NCCN3)c12 | 2470 nM | 394.2 nM | 280 nM | 588 µM |
| Br.c1ccc(COc2cccc3ccn(CC4=NCCN4)c23)cc1 | 10400 nM | 381.8 nM | 5241 nM | 36.3 µM |
| Brc1ccc2c(ccn2CC2=NCCN2)c1.Cl | 30.3 nM | 1348 nM | 596.7 nM | 10.5 µM |
| Cl.Fc1cccc2ccn(CC3=NCCN3)c12 | 32.1 nM | 36.7 nM | 16.57 nM | 9.63 µM |
| Cl.Fc1ccc2c(ccn2CC2=NCCN2)c1 | 66.3 nM | 306.7 nM | 68.43 nM | 0.0321 µM |
| Brc1cccc2c1ccn2CC1=NCCN1.Cl | 179 nM | 257.7 nM | 84.4 nM | 0.468 µM |
| CCc1cccc2ccn(CC3=NCCN3)c12.Cl | 880 nM | 439.4 nM | 71.7 nM | 45.8 µM |
| Brc1cccc2ccn(CC3=NCCN3)c12.Cl | 254 nM | 7.91 nM | 18.3 nM | 0.0792 µM |
